Laboratory results reported in the supplement of paper PMC10307832.

Tests used:
Experiment in all cases: relative viability (nuclei count vs DMSO), 5 days (fraction); higher = more cells survive
AZD5582 + Bortezomib = compound: C[C@@H](C(=O)N[C@@H](C1CCCCC1)C(=O)N2CCC[C@H]2C(=O)N[C@@H]3[C@@H](CC4=CC=CC=C34)OCC#CC#CCO[C@@H]5CC6=CC=CC=C6[C@@H]5NC(=O)[C@@H]7CCCN7C(=O)[C@H](C8CCCCC8)NC(=O)[C@H](C)NC)NC [AZD5582] + CC(C)C[C@H](NC(=O)[C@H](Cc1ccccc1)NC(=O)c1cnccn1)B(O)O [Bortezomib] (partner 0.002 µM)
In short: (§1)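 Medians of duplicate plates are given as relative viability. That measure is the nuclei count in treated wells divided by the count in vehicle wells. Counts were taken on 4× images of lung cancer cell lines in 1536-well plates, 5 days after pin-tool dosing the day after seeding with one drug alone or a fixed anchor-drug dose plus five library-drug doses (not always all listed) in √10 steps.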

AZD5582 + Linsitinib = compound: C[C@@H](C(=O)N[C@@H](C1CCCCC1)C(=O)N2CCC[C@H]2C(=O)N[C@@H]3[C@@H](CC4=CC=CC=C34)OCC#CC#CCO[C@@H]5CC6=CC=CC=C6[C@@H]5NC(=O)[C@@H]7CCCN7C(=O)[C@H](C8CCCCC8)NC(=O)[C@H](C)NC)NC [AZD5582] + C[C@]1(O)C[C@@H](c2nc(-c3ccc4ccc(-c5ccccc5)nc4c3)c3c(N)nccn32)C1 [Linsitinib] (partner 1 µM)
In short: as §1

[1] = compound: Cn1nnc2c(C(N)=O)ncn2c1=O [Temozolomide] + CC(=O)c1c(C)c2cnc(Nc3ccc(N4CCNCC4)cn3)nc2n(C2CCCC2)c1=O [Palbociclib] (partner 0.5 µM)
In short: as §1

Temozolomide + Dasatinib = compound: Cn1nnc2c(C(N)=O)ncn2c1=O [Temozolomide] + Cc1nc(Nc2ncc(C(=O)Nc3c(C)cccc3Cl)s2)cc(N2CCN(CCO)CC2)n1 [Dasatinib] (partner 0.075 µM)
In short: as §1

| Cell Line | relative viability (AZD5582 + Bortezomib; first compound 0.001581 µM) | relative viability (AZD5582 + Bortezomib; first compound 0.005 µM) | relative viability (AZD5582 + Bortezomib; first compound 0.01581 µM) | relative viability (AZD5582 + Bortezomib; first compound 0.05 µM) | relative viability (AZD5582 + Linsitinib; first compound 0.001581 µM) | relative viability (AZD5582 + Linsitinib; first compound 0.005 µM) | relative viability (AZD5582 + Linsitinib; first compound 0.01581 µM) | relative viability (AZD5582 + Linsitinib; first compound 0.05 µM) | relative viability ([1]; first compound 0.2 µM) | relative viability ([1]; first compound 0.6325 µM) | relative viability ([1]; first compound 2 µM) | relative viability ([1]; first compound 6.325 µM) | relative viability ([1]; first compound 20 µM) | relative viability (Temozolomide + Dasatinib; first compound 0.2 µM) | relative viability (Temozolomide + Dasatinib; first compound 0.6325 µM) | relative viability (Temozolomide + Dasatinib; first compound 2 µM) | relative viability (Temozolomide + Dasatinib; first compound 6.325 µM) | relative viability (Temozolomide + Dasatinib; first compound 20 µM) |
| --- | --- | --- | --- | --- | --- | --- | --- | --- | --- | --- | --- | --- | --- | --- | --- | --- | --- | --- |
| 201T | 1.1 | 1.16 | 1.07 | 1.17 | 1.03 | 1.18 | 0.995 | 1.27 | 0.348 | 0.361 | 0.382 | 0.362 | 0.355 | 0.584 | 0.523 | 0.539 | 0.57 | 0.565 |
| A549 |  |  |  |  | 0.545 | 0.768 | 0.444 | 0.726 |  |  |  |  |  |  |  |  |  |  |
| A-427 | 0.92 | 0.954 | 0.938 | 0.891 | 1.01 | 1.04 | 1.12 | 0.955 | 0.519 | 0.575 | 0.518 | 0.492 | 0.427 | 0.736 | 0.669 | 0.762 | 0.525 | 0.356 |
| ABC-1 | 0.282 | 0.275 | 0.291 | 0.261 | 0.766 | 0.958 | 0.913 | 0.971 | 0.639 | 0.777 | 0.707 | 0.65 | 0.65 | 0.621 | 0.558 | 0.607 | 0.49 | 0.586 |
| Calu-6 | 0.917 | 0.813 | 0.988 | 0.551 | 0.811 |  | 0.985 | 0.768 |  |  |  |  |  |  |  |  |  |  |
| ChaGo-K-1 | 0.988 | 0.985 | 0.93 | 0.982 |  |  |  |  | 1.05 | 0.967 | 0.967 | 0.873 | 0.917 | 0.605 | 0.603 | 0.781 | 0.552 | 0.579 |
| EBC-1 | 0.434 | 0.39 | 0.528 | 0.389 | 0.828 | 0.939 | 0.883 | 1.03 |  |  |  |  |  |  |  |  |  |  |
| HCC-44 | 0.711 | 0.722 | 0.918 | 0.553 | 0.589 | 0.558 | 0.616 | 0.432 | 0.984 | 0.943 | 0.921 | 0.988 | 0.981 |  |  |  |  |  |
| IA-LM | 0.704 | 0.679 | 0.829 | 0.74 | 0.5 | 0.479 | 0.64 | 0.599 |  |  |  |  |  |  |  |  |  |  |
| LK-2 |  |  |  |  |  | 0.685 | 0.643 | 0.795 | 0.599 | 0.719 | 0.601 | 0.327 | 0.2 | 0.266 | 0.323 | 0.384 | 0.246 | 0.27 |
| NCI-H358 |  |  |  |  | 0.817 | 0.998 | 0.899 | 0.847 | 0.137 | 0.143 | 0.128 | 0.136 | 0.131 | 0.13 | 0.151 | 0.17 | 0.142 | 0.135 |
| NCI-H522 |  |  |  |  |  |  |  |  | 0.976 | 0.919 | 1.05 | 1.02 | 0.682 | 0.877 | 0.729 | 0.932 | 0.703 | 0.935 |
| NCI-H596 | 1.35 | 1.2 | 1.13 | 0.549 | 1.28 | 0.503 | 1.08 | 0.246 |  |  |  |  |  | 0.601 | 0.697 | 0.614 | 0.461 | 0.564 |
| NCI-H1299 | 1.01 | 1.08 | 1.04 | 0.99 | 0.93 | 1.04 | 1.01 | 0.97 |  |  |  |  |  |  |  |  |  |  |
| NCI-H1395 |  |  |  |  | 1.05 | 1.03 |  | 1.11 | 0.532 | 0.62 | 0.663 | 0.616 | 0.535 | 0.429 | 0.393 | 0.491 | 0.402 | 0.392 |
| NCI-H1563 | 0.765 | 0.887 | 0.788 | 1.25 | 1.23 | 1.18 | 1.24 | 1.15 |  |  |  |  |  | 0.454 | 0.481 | 0.453 | 0.366 | 0.447 |
| NCI-H1623 |  |  |  |  |  |  |  |  |  |  |  |  |  |  | 0.555 | 0.455 | 0.474 | 0.355 |
| NCI-H1648 |  |  |  |  |  |  |  |  |  | 0.23 | 0.318 | 0.273 | 0.283 |  |  |  |  |  |
| NCI-H1650 | 0.166 | 0.192 | 0.188 | 0.169 |  |  |  |  | 0.339 | 0.406 | 0.362 | 0.355 | 0.28 | 0.356 | 0.329 | 0.343 | 0.318 | 0.28 |
| NCI-H1793 |  |  |  |  | 0.816 | 1.01 | 0.752 | 1.11 |  | 0.268 | 0.367 | 0.318 | 0.264 |  | 0.407 | 0.378 | 0.28 | 0.352 |
| NCI-H1944 |  |  |  |  | 1.15 | 1.4 | 1.21 | 1.44 | 0.335 | 0.341 | 0.345 | 0.341 | 0.298 | 0.218 | 0.196 | 0.223 | 0.213 | 0.192 |
| NCI-H2170 |  |  |  |  |  |  |  |  |  | 0.398 | 0.368 | 0.375 | 0.264 |  | 0.677 | 0.655 | 0.503 | 0.259 |
| NCI-H2342 |  |  |  |  |  |  |  |  | 0.501 | 0.529 | 0.521 | 0.491 | 0.53 | 0.311 | 0.301 | 0.304 | 0.312 | 0.297 |
| SK-MES-1 |  |  |  |  | 1.1 | 1.16 | 1.04 | 1.17 | 0.328 | 0.312 | 0.332 | 0.353 | 0.332 | 0.289 | 0.34 | 0.412 | 0.374 | 0.228 |
| SW 900 |  |  |  |  |  |  |  |  | 0.598 | 0.612 | 0.556 | 0.559 | 0.468 | 0.644 | 0.561 | 0.381 | 0.541 | 0.553 |
